Data as given in US20060142171A1, “Novel alkaline protease” (priority 2003, published 2006).
Starred links: 1 amine or outer side, 2 acyl side, 3 side chain; linkers in the order of their positions; H or OH if unused. Non-standard residues stand in square brackets, D forms with d. Residues, ends and D or L forms follow the SMILES beside them. *: point of attachment. Sta = CC(C)C[C@H](N)[C@@H](O)CC(=O)O; pNA = O=[N+]([O-])c1ccc(N*)cc1; Suc = O=C(CCC(=O)[*:2])[*:1]; Isovaleryl = CC(C)CC(=O)*

Experiments:
AL-89 protease = assay: Effect of protease inhibitors on AL-89 protease activity; type: biochemical, Bacillus pseudofirmus AL-89; settings: for Remaining activity (%): AL-89 protease, incubated 1 h at 30° C.
Method: (§1) Protease activity was determined using casein as substrate as described earlier [3.12]. The reaction mixture in a total volume of 2 ml was composed of 1% casein, 50 mM glycine-NaOH buffer, pH 10, and appropriately diluted enzyme. After 20 min incubation at 50° C. the reaction was terminated by adding equal volume of 10% trichloroacetic acid (TCA). After separation of the unreacted casein precipitate by centrifugation, 0.5 ml of clear supernatant was mixed with 2.5 ml of 0.5 M Na2CO3 and 0.5 ml of 1 N Folin-Ciocalteau's phenol reagent. After 30 min at 25° C., absorbance was measured at 660 nm against a reagent blank. One unit of protease activity was defined as the amount of enzyme that released 1 μg of amino acid equivalent to tyrosine per min under the standard assay conditions.
(§2) AL protease was also not inhibited by inhibitors of cysteine proteases, aspartate proteases and metal proteases (Table 5). The effect of another serine protease specific inhibitor, 3,4-dichlorocoumarin at a concentration of 100 μM on the protease activity was investigated.

AL protease [1] = target: T1, AL protease (Nesterenkonia aethiopica, UniProt D0VWT7); assay: biochemical; type: biochemical, Nesterenkonia sp. AL
T1 sequence (D0VWT7 entry or part of it): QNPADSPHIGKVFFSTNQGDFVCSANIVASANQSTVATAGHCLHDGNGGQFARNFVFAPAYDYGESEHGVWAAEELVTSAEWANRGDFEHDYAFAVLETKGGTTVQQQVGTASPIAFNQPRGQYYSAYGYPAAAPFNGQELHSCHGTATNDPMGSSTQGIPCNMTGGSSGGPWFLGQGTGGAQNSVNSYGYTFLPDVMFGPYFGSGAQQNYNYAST
Method: as §1, §2

AL protease [2] = target: T1, AL protease; assay: Assay with synthetic peptide, pNA, AMC, NNap and ester substrates (kinetic parameters); type: biochemical, Nesterenkonia sp. AL; settings: for Hydrolysis of synthetic substrate by AL protease: result in words
Method: The AL protease activity toward a variety of commercially available synthetic peptide substrates was assayed. The incubation volume was always 1 ml in which 10 μl enzyme solution; 0.76 mg protein/ml was used unless otherwise stated. Initial reaction rates were fitted to the Michaelis-Menten equation, and kinetic parameters, kcat and Km were determined.
Fluorometric assay for Suc-L-Y-AMC, Suc-A-A-F-AMC, Suc-I-I-W-AMC, Suc-A-A-K-AMC, NA-Bz-R-AMC, Suc-L-L-V-Y-AMC, Suc-F-G-L-β-NNap, Suc-L-β-NNap (Sigma) was performed in 50 mM glycine-NaOH buffer, pH 10 at 25° C. The substrate concentration range was from 0.05 to 10 mM except for Suc-L-L-V-Y-AMC (0.1-25 μM). Fluorescence was monitored with a SPEX Fluorolog spectrometer, in a 1×1 cm quartz cuvette placed in a thermostat cuvette holder, using excitation wavelength of 345 nm, emission wavelength 442 nm slit width 5 nm for AMC substrate and excitation wavelength of 340 nm, emission wavelength of 410 and slit width 5 nm for β-NNap substrates. A standard solution of AMC and β-naphthylamine was used to convert the fluorescence values to product concentrations.
Activity with p-nitroanilide substrates was tested at 25° C. in 50 mM Tris-HCl buffer, pH 9. Following substrates were used: Bz-Tyr-pNA (Sigma), BAPNA, Suc-Phe-pNA, Suc-A-A-P-F-pNA, Suc-A-A-P-L-pNA, Suc-G-G-G-pNA, Suc-A-A-A-pNA, Suc-A-A-V-pNA (Bachem Feinchemikalien AG (Bubendorf, Switzerland), and S-benzyl-L-cysteine-4-nitroanilide (Fluka Chemie AG, Buchs, Switzerland). The release of p-nitroanilide (pNA) was measured at 410 nm. Extinction coefficient (E) of pNA was taken to be 8480 M^−1 cm^−1. Initial reaction rates were determined over a concentration range of 0.05-10 mM for most substrates, excluding Suc-A-A-P-L-pNA (0.05-20 mM), and S-benzyl-L-Cysteine-4-nitroanilide (0.05-80 mM).
Hydrolytic activity of the enzyme on the ester substrates, BAEE, BTEE, Bz-F-NE, p-nitrophenyl acetate, p-nitrophenyl butyrate and Suc-F-L-F-SBzl (Sigma) was examined spectrophotometrically at 410 nm (ε410=900 M^−1cm^−1) in 50 mM Tris-HCl buffer, pH 9 at 25° C. and 50° C. respectively. The substrates concentration range between 0.05 to 10 mM. The Initial hydrolysis of BAEE, Suc-F-L-F-SBzl was followed at 253 nm (ε253=1150 M^−1cm^−1) and BTEE at 259 nm (ε259=964 M^−1cm^−1), at which their extinction coefficients were taken in calculation.
Due to the poor aqueous solubility of some of the substrates, their stock solutions were prepared in organic solvents, and further dilution was done with the used buffer. Suc-F-G-L-β-NNap, Suc-L-L-V-Y-AMC, Suc-L-Y-AMC, Suc-A-A-F-AMC, Suc-I-I-W-AMC, Suc-A-A-K-AMC, NA-Bz-R-AMC and Bz-Tyr-pNA, Suc-F-L-F-SBzl and Bz-F-βNE were dissolved in dimethylsulfoxide (DMSO), Suc-Phe-pNA, BTEE and BAPNA in ethanol, Suc-A-A-A-pNA in N,N-dimethylformamide (DMF), and Bz-Cys-NA in acetonitrile.
In these cases the kcat/Km was calculated from velocity measurements at low substrate concentration [S]<<Km, where v=(kcat/Km)[E]0 [S].

[3] = AL protease, inhibitor 10 mM, incubated 1 h at 30° C.
[4] = substrate marked b (footnote not given), pNA and ester substrates, 50 mM Tris-HCl buffer, pH 9
[5] = substrate marked a (footnote not given), AMC substrate, 50 mM glycine-NaOH buffer, pH 10 at 25° C.

In the case of `O=S(=O)(F)Cc1ccccc1` [PMSF, phenyl-methanesulfonyl fluoride], the “Remaining activity (%)” value (AL-89 protease; inhibitor 1 mM) is reported as 0%, the “Remaining activity (%)” value (AL-89 protease; inhibitor 10 mM) is reported as 0% and the “Inhibition of AL-89 protease activity” value (AL-89 protease; result in words, 1 mM) is reported as “totally inhibited”. For the same compound, the “Remaining activity (%)” value (AL protease [1]; AL protease, inhibitor 1 mM, incubated 1 h at 30° C.) was 100%, the “Remaining activity (%)” value (AL protease [1]; [3]) was 108% and the “Inhibition of AL protease activity” value (AL protease [1]; result in words, PMSF up to 10 mM, others at concentrations of Table 5) was “did not inhibit”.

With `O=C(O)c1cc[c]([Hg][Cl])cc1` [PCMBA] the “Remaining activity (%)” value (AL-89 protease; inhibitor 5 mM) was 91% and the “Remaining activity (%)” value (AL protease [1]; AL protease, inhibitor 5 mM, incubated 1 h at 30° C.) was 99%.

With `c1cnc2c(c1)ccc1cccnc12` [1,10-Phenanthroline] the “Remaining activity (%)” value (AL-89 protease; inhibitor 10 mM) was 75% and the remaining activity at 10000 µM (AL protease [1]; [3]) was 113%.

`CC(C)CC(=O)N[C@H](C(=O)N[C@H](C(=O)N[C@@H](CC(C)C)[C@@H](O)CC(=O)N[C@@H](C)C(=O)N[C@@H](CC(C)C)[C@@H](O)CC(=O)O)C(C)C)C(C)C` [Pepstatin] (Isovaleryl-VV[Sta]A[Sta]-OH) was tested, and the “Remaining activity (%)” value (AL-89 protease; inhibitor 0.1 mM) was 100% and the remaining activity at 100 µM (AL protease [1]; AL protease, inhibitor 0.1 mM, incubated 1 h at 30° C.) was 102%.

In the case of “N-succinyl-Ala-Ala-Val-p-nitroanilide (Suc-Ala-Ala-Val-pNA; SMILES CC(C)[C@H](NC(=O)[C@H](C)NC(=O)[C@H](C)NC(=O)CCC(=O)O)C(=O)Nc1ccc([N+](=O)[O-])cc1) [Suc-A-A-V-pNA]”, the “Hydrolysis of synthetic substrate by AL protease” value (“Hydrolysis of synthetic substrate” for short) (AL protease [2]) is reported as “unable to hydrolyze”.

With “N-Succinyl-Ala-Ala-Ala-p-nitroanilide [Suc-A-A-A-pNA]” the “Hydrolysis of synthetic substrate” value (AL protease [2]) was “unable to hydrolyze”.

With `O=C(O)CN(CCN(CC(=O)O)CC(=O)O)CC(=O)O` [EDTA, ethylenediamino tetraacetate] the “Remaining activity (%)” value (AL-89 protease; inhibitor 10 mM) was 98% and the “Remaining activity (%)” value (AL protease [1]; [3]) was 99%.

“N-succinyl-Gly-Gly-Gly-p-nitroanilide (Suc-Gly-Gly-Gly-pNA; SMILES O=C(O)CCC(=O)NCC(=O)NCC(=O)NCC(=O)Nc1ccc([N+](=O)[O-])cc1) [Suc-G-G-G-pNA]” was tested, and the “Hydrolysis of synthetic substrate” value (AL protease [2]) was “unable to hydrolyze”.

For `CC(=O)Oc1ccc([N+](=O)[O-])cc1` [p-nitrophenyl acetate], the “Hydrolysis of synthetic substrate” value (AL protease [2]) was “unable to cleave”.

`N=C(N)NCCCC(NC(=O)c1ccccc1)C(=O)Nc1ccc([N+](=O)[O-])cc1` (racemic) [BAPNA, Nα-benzoyl-D,L-arginine-p-nitroanilide] was tested, and the “Hydrolysis of synthetic substrate” value (AL protease [2]) was “did not show detectable activity”.

In the case of “N-succinyl-Ala-Ala-Pro-Phe-p-nitroanilide (Suc-AAPF-pNA) [Suc-A-A-P-F-pNA]”, the “Hydrolysis of synthetic substrate” value (AL protease [2]) is reported as “remarkable hydrolyzing activity”, the Km (AL protease [2]; [4]) is reported as 2970 µM and the kcat (AL protease [2]; [4]) is reported as 4391.46 s⁻¹.

For `O=C(O)CCC(=O)N[C@@H](Cc1ccccc1)C(=O)Nc1ccc([N+](=O)[O-])cc1` [Suc-Phe-pNA, N-succinyl-phenylalanine-p-nitroanilide], the “Hydrolysis of synthetic substrate” value (AL protease [2]) was “did not show detectable activity”.

For “N-succinyl-Ala-Ala-Pro-Leu-p-nitroanilide (Suc-AAPL-pNA; SMILES CC(C)C[C@H](NC(=O)[C@@H]1CCCN1C(=O)[C@H](C)NC(=O)[C@H](C)NC(=O)CCC(=O)O)C(=O)Nc1ccc([N+](=O)[O-])cc1) [Suc-A-A-P-L-pNA]”, the “Hydrolysis of synthetic substrate” value (AL protease [2]) was “remarkable hydrolyzing activity”, the Km (AL protease [2]; [4]) was 9300 µM and the kcat (AL protease [2]; [4]) was 6646.19 s⁻¹.

With “N-succinyl-Leu-Leu-Val-Tyr-7-amino-4-methyl coumarin [Suc-L-L-V-Y-AMC]” the “kcat/Km higher than that for Suc-A-A-P-F-pNA and Suc-A-A-P-L-pNA” value (AL protease [2]; AL protease) was 2.5-5 fold, the “Hydrolysis of synthetic substrate” value (AL protease [2]) was “remarkable hydrolyzing activity” and the Km (AL protease [2]; [5]) was 15 µM. The kcat (AL protease [2]; [5]) was 51.68 s⁻¹.
